Test results from US11360104B2, “Microbial-based biosensors” (TRUSTEES OF BOSTON UNIVERSITY, priority 2017, dated 2022).
Like-named read-outs stand apart in the source and are kept apart here.

What was measured:
[1] = target: Pimelobacter simplex PinR (AIY20223.2; SEQ ID NO: 1), his-tagged (AIY-his6); experiment: QD-FRET steroid sensor (QD-PinR + DNA-Cy5), steroid-induced TF-DNA unbinding; assay type: biochemical
Procedure: Fluorescent spectra were analyzed using MATLAB (Mathworks) and were fitted with a sum of 2 Gaussians (D=QD: FWHM=27 nm, λmax=607 nm; A=DNA-Cy5: FWHM=40 nm, λmax=669 nm). The area of each Gaussian was extracted and FD and FA are obtained respectively for the fluorescence of QD (donor) and Cy5 (acceptor).
Raw dose-response curves were obtained by plotting FA/FD as a function of the steroid concentration. Sensor output is the normalization of the fluorescent spectra of the donor and acceptor according to the following equation: […]
Non-normalized dose-response were fitted with Origin Pro 8 software with the non-linear equation: […]
The cross-reactivity of progesterone regarding the different steroids was calculated with the following equation: […]
CdSe/CdS/ZnS QDs were coated with a zwitterionic polymer bearing histamine anchoring functions (P1, SI). Once the hydrophobic QDs were transferred into H2O using a biphasic ligand exchange, his-tagged TFs were self-assembled on the QD surface to produce the QD-TF. Addition of the double stranded, Cy5-labeled TF-binding sequence completed probe assembly as the oligo binds to the TF in the absence of progesterone (PRG). The molar ratios of the QD, TF, and DNA in the sensor were controlled through the stoichiometric ratios of the mixed parts.
Two fluorescent spectra were recorded, one from the QDs and one from the Cy5 due to the FRET.
First, the DNA1 (most binding sequence) has been used to build the first biosensor, named sensor 1. For this sensor, a ratio of QD/TF/DNA of 1/4/18 was chosen. […] In order to homogenize the fluorescent signals in between batches and different sensor variations, FA/FD was normalized to give the signal output. Signal output is then plotted against PRG concentration to give a dose-response curve (FIG. 9C) This curve was fitted with the non-linear equation XX to obtain the half-maximal inhibitory concentration (IC50) (Table 13).
Description for a typical experiment, using a molar ratio of QD/TF/DNA=1/4/18. QDs in (275 uL, 0.15 uM in HEPES 1×, pH 7.6 with 1% BSA) were mixed with AIY-his6 (275 uL, 0.6 uM in HEPES 1× pH 7.6) at room temperature for 45 min. Then, the double-stranded DNA labelled with a Cy5 fluorescent probe at the 3′ and 5′ ends (275 uL, 2.7 uM in HEPES 1× pH 7.6) was added to the mixture. After 30 min, 220 uL of HEPES 1× pH 7.5 and 330 uL of 5× binding buffer (25 mM MgCl2, 25% glycerol, and 250 mg/L Invitrogen™ UltraPure™ Salmon Sperm DNA in Tris-HCl 0.1M) were added and the mixture is left 15 more min at RT.
(§1) 50 uL of the sensor (QD/TF/DNA) was then splitted in 3×9 centrifuge tubes to which 10 uL of progesterone at the desired concentration is added. As such, the final concentration of QD/TF/DNA for the measurements is 25 nM/100 nM/450 nM. A 384 well plate was filled with 60 uL of each solution. The fluorescence intensity was monitored on a spectrofluorimeter from 535 nm to 800 nm exciting at 400 nm, equipped with a 450 nm long-pass filter in emission.

[2] = target: PinR (Nocardioides simplex (Pimelobacter simplex), UniProt A0A0A1DUF2); experiment: Cross-reactivity assay of steroids using sensor 3; assay type: biochemical
Chain of PinR (A0A0A1DUF2 entry or part of it): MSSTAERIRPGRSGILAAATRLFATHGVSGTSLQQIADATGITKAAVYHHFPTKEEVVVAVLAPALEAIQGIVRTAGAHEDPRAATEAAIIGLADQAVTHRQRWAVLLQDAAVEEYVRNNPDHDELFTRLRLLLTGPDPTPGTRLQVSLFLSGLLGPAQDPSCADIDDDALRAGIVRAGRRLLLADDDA
Procedure: The cross-reactivity of progesterone regarding the different steroids was calculated with the following equation:
Description for a typical experiment, using a molar ratio of QD/TF/DNA=1/4/18.
as §1, with “As such, the final concentration of QD/TF/DNA for the measurements is 25 nM/100 nM/450 nM.” left out

## CC(=O)[C@H]1CC[C@H]2[C@@H]3CCC4=CC(=O)CC[C@]4(C)[C@H]3CC[C@]12C [PRG, Progesterone]
[1]; DNA1, QD/TF/DNA 1/4/18, read-out: X0
  IC50: 460 ± 20 nM
[1]; DNA2, QD/TF/DNA 1/4/18, read-out: X0
  IC50: 370 ± 10 nM
[1]; DNA 3, QD/TF/DNA 1/1/2, read-out: X0
  IC50: 210 nM
[1]; DNA 3, QD/TF/DNA 1/1/18, read-out: X0
  IC50: 350 nM
[1]; DNA 3, QD/TF/DNA 1/2/2, read-out: X0
  IC50: 270 nM
[1]; DNA 3, QD/TF/DNA 1/2/18, read-out: X0
  IC50: 410 nM
[1]; DNA 3, QD/TF/DNA 1/4/2, read-out: X0
  IC50: 200 nM
[1]; DNA 3, QD/TF/DNA 1/4/18 (Table 11), read-out: X0
  IC50: 290 nM
[1]; DNA3, QD/TF/DNA 1/4/18, read-out: X0
  IC50: 290 ± 20 nM
[1]; DNA 3, QD/TF/DNA 1/10/18, read-out: X0
  IC50: 390 nM
[1]; DNA 3, QD/TF/DNA 1/16/18, read-out: X0
  IC50: 440 nM
[1]; DNA 4, QD/TF/DNA 1/1/4, read-out: X0
  IC50: 49 ± 12 nM
[1]; DNA 4, QD/TF/DNA 1/1/18, read-out: X0
  IC50: 74 ± 18 nM
[1]; DNA 4, QD/TF/DNA 1/4/9, read-out: X0
  IC50: 140 ± 14 nM
[1]; DNA 4, QD/TF/DNA 1/4/18 (Table 12), read-out: X0
  IC50: 150 ± 12 nM
[1]; DNA4, QD/TF/DNA 1/4/18, read-out: X0
  IC50: 150 ± 10 nM
[1]; DNA 4, QD/TF/DNA 1/16/8, read-out: X0
  IC50: 380 ± 16 nM
[1]; sensor 2 (DNA 2, QD/TF/DNA=1/4/18), read-out: IC50
  IC50: 133 ± 9 nM
[1]; sensor 3 (DNA 2, QD/TF/DNA=1/1/18), read-out: IC50
  IC50: 57 ± 3 nM
[2]
  IC50: 59 ± 4 nM
[2]; sensor 3, HEPES 1×
  P (slope of fit): 1.31 ± 0.10
